Measurements published in patent US10174005B2, “Fused pyrimidines as inhibitors of p97 complex” (Cleave Biosciences, Inc., priority 2014, dated 2019).
Like-named read-outs stand apart in the source and are kept apart here.

Legend:
[1] = system: K48-Ub (lysine-48 chain linkage of poly-ubiquitin) in A549 cells; test: A549 K48-Ub accumulation, immunofluorescence high-content imaging; format: cell-based; conditions: Homo sapiens, 6 hr incubation
Description: Image-analysis is used to generate quantitative data from these assays that can be fit to a four-parameter sigmoid curve to derive IC50 values. Substrates of the ubiquitin-proteasome system, such as p53, are monitored after tumor cell lines are incubated with compounds for several hours. Accumulation of these proteins indicates an inhibition of proteasome-mediated degradation. Accumulation of lysine-48 chain linkage of poly-ubiquitin is also monitored by immunofluorescence as an indicator of ubiquitin-proteasome system inhibition. Both LC3 and SQSTM1 are mediators of autophagy. The localization and amounts of these proteins are monitored by immunofluorescence and report on the activity and inhibition of autophagy in response to p97 inhibition.
(§1) Cell Plating: • Seed cells ˜16 hrs prior to compound treatment • Plate 25 μL of A549 cells in every well of 384-well plate using multidrop. • Two (2) black plates for IF at 2500 cells/well • Let plate sit at room temp for 10-15 minutes prior to putting in incubator to • allow cells to stick in middle of plate. • One (1) white plate for viability at 500 cells/well.
(§2) Day 2 Treatment of Cultured Cells with Test Compounds • Treat Cells: • Serial dilute compounds with a 10 point 2-fold serial dilution in DMSO to make 250× stock compound solution • Dilute compounds 1:125 in cell culture media to make a 2× solution Add • 25 μl of dilution compounds to cell plates in well duplicates Put cells back in incubator (6 hr incubation for black plates, 72 hr incubation for white plates).
Fix/Stain Black Plates: • Incubate cells in black plates with compound at 37 deg C. for 6 hrs. add 15 μL of 16% Paraformaldehyde (PFA) directly into media of each well, incubate at room temp for 5 min, flick plate and wash in 50 μL of PBS block in 50 μL of Blocking Buffer for 30 minutes (can go up to several hours) • Blocking buffer: 1×PBS, 1% BSA, 0.3% Triton-X 100, Hoechst (1:10,000) incubate in 25 μL of primary antibody in blocking buffer at 4 deg C. over night
Secondary Antibodies: • AlexaFluor488 Goat anti-Rabbit 1:2,000 (Life Tech A11008) • AlexaFluor555 Goat anti-Mouse 1:2.000 (Life Tech A21422)
Day 3/4 • Black Plate Staining (cont): • wash black plates 3× in 50 μL PBS (˜5 min each) incubate in 25 μl of secondary antibody (1:2,000) in blocking buffer for 1-2 hrs at room temp (alexafluor488-anti-Rabbit/alexafluor555-anti-Mouse) • wash 4× in 50 μL PBS (˜5 min each) • leave plates in PBS for imaging • clean bottom of plates with 70% EtOH
Imaging: • Image plates in high content microscope with 405 nm, 488 nm and 555 nm filters
Data Analysis: • Nuclear counts and cellular intensities of each markers are measured using Hoechst as a nuclear marker with an automated image analysis protocol using Matlab software (Math Works)

[2] = molecular target: p97 (Homo sapiens, UniProt P55072); test: P97 ATPase biochemical assay (ADP Glo); conditions: 20 nM p97, 20 μM ATP, 37° C. for 15 minutes
Chain of p97 (P55072 whole entry): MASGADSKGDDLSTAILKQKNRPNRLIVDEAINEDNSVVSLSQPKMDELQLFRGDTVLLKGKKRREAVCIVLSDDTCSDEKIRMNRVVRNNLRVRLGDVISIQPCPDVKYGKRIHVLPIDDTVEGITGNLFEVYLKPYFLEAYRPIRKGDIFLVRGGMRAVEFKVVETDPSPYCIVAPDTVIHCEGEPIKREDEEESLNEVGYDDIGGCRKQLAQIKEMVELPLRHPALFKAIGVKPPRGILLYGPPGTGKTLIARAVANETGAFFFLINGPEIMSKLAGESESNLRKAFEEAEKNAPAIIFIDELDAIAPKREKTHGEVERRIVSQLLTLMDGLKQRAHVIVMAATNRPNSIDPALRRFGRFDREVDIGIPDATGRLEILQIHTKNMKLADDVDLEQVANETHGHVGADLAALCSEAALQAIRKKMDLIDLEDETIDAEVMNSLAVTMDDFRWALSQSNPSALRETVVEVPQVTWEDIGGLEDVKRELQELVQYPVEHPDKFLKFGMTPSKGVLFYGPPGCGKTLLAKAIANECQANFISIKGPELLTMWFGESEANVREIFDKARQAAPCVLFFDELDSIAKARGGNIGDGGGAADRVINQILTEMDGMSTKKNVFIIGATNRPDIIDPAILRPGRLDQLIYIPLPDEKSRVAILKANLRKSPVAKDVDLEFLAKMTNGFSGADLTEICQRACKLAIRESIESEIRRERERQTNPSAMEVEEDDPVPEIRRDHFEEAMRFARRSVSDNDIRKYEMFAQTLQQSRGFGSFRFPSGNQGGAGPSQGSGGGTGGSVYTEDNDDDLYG
Description: The ATPase assay is performed according the following protocol: Purified enzyme (20 nM p97), substrate (20 μM ATP) and a dose titration of compounds are mixed in buffer (50 mM TRIS pH 7.5, 20 mM MgCl2, 0.02% TX-100, 1 mM DTT, 0.2% (v/v) glycerol) and incubated at 37° C. for 15 minutes. The reaction is terminated and the level of product generated is measured using the ADP Glo Assay Kit (Promega, Madison Wis.). Plotting product generated versus compound concentration and using a four-parameter fit model generates an IC50 value for each compounds.
The p97 assay is an initial screening assay used to determine inhibitory activity of the fused pyrimidine compounds of the invention against the p97 complex. As discussed above, inhibition of activity of the p97 proteosome complex can enable apoptosis and cause elimination of neoplastic cells (cancer cells). The method follows that of Christianson in Nat. Cell Biol., (2011) 14:93.
Assay Buffer is a mixture of 50 mM TRIS pH 7.5, 20 mM MgCl2, 0.02% TX-100, 1 mM DTT and 0.2% (v/v) Glycerol. The well plate is Platetype: Corning 3674, 384w plate. The identification kit is an ADP glo kit (Promega): stop buffer, detection reagent.
Serial dilute compound in DMSO in a 1:3.33-fold 10 point serial dilution.
in each well of 384w plate add the following reagents:
0.5 μL compound serial diluted in DMSO (Final Conc. 10%)
2 μL ATP (Final Conc.=20 uM, diluted in assay buffer)
2.5 μL p97 (Final Conc.=20 nM, diluted in assay buffer)
Incubate at 37 deg C. for 15 min.
Add 5 μL of stop buffer, incubate at RT for 40 min.
Add 10 μL of detection reagent, incubate at RT for 30 min.
Read luminescence on Envision plate reader.
Upon obtaining the data from the luminescence reading, the data may be analyzed as follows:
Normalize luminescence data using no enzyme (full inhibition) and no compound (no inhibition) controls. Plot normalized luminescence data against log-transformed concentration values and fit to a sigmoidal curve to determine IC50 values (done in Collaborative Drug Discovery software).

[3] = system: A549 cells; test: Cultured cancer cell viability assay (cell titer glo, CTG) in A549 cells; format: cell-based; conditions: Homo sapiens, read-out: A549 CTG IC50
Text: Anti-tumor effects are monitored in cultured cancer cells after several days of compound treatment. The cell titer glo assay (Promega) measures the amount of ATP present as a proxy for cellular viability. Cellular counting is done using high-content microscopy followed by image analysis. A hanging drop 3D-culture system (3D Biomatrix) is used followed by cell titer glo to measure growth in a tumor-like environment.
The cellular assay provides information about the anti-neoplastic activity of the compounds of the invention. The compounds are tested against cultured cancer cells to determine whether or not the compounds of the invention are capable of intersecting with cancer cells to minimize or eliminate such cells. The assay involves establishing colonies of such cells and then treating them with the test compound under specified conditions and analysis regima to determine results.
as §1, §2
Viability Assay: • Thaw an aliquot of frozen cell titer glo (Promega G7572) at room temperature. • Add 45 mL of NaCl/PBS solution to 5 ml of cell titer glo (10×). • Remove white plates from incubator, leave at room temp for 30 minutes. • Add 25 μl of diluted cell titer glo to each well. • Shake plate for >1 minute. • Incubate plate for >5 minutes to stabilize luminescence. • Luminescence is stable for up to 3 hours. • Read luminescence on plate reader

[4] = A549 cells, 72 hr incubation, cell titer glo

| Compound | IC50 [1] [µM] | IC50 [2] [µM] | IC50 [3, 4] [µM] | IC50 ([3]; A549, 72 h) [µM] |
| --- | --- | --- | --- | --- |
| NC(=O)c1cccc2c1cnn2-c1nc2c(c(NCc3ccccc3)n1)CCCC2 [FF03, 1-(4-(benzylamino)-5,6,7,8-tetrahydroquinazolin-2-yl)-1H-indazole-4-carboxamide] | < 1 | < 0.03 | < 1 | – |
| NC(=O)c1cccc2c1cnn2-c1nc2c(c(NCc3ccccc3)n1)COCC2 [FF04, 1-(4-(benzylamino)-7,8-dihydro-5H-pyrano[4,3-d]pyrimidin-2-yl)-1H-indazole-4-carboxamide] | – | < 0.3 | – | – |
| Cc1[nH]c2c(C(N)=O)cccc2c1-c1nc2c(c(NCc3ccccc3)n1)CCCC2 [FF05, 3-(4-(benzylamino)-5,6,7,8-tetrahydroquinazolin-2-yl)-2-methyl-1H-indole-7-carboxamide] | < 3 | < 0.03 | < 3 | – |
| Cc1cc2c(C(N)=O)cccc2n1-c1nc(NCc2ccccc2)c2c(n1)OCCC2 [FF06, 1-(4-(benzylamino)-6,7-dihydro-5H-pyrano[2,3-d]pyrimidin-2-yl)-2-methyl-1H-indole-4-carboxamide] | < 1 | < 0.03 | < 1 | – |
| Cc1cc2c(C(N)=O)cccc2n1-c1nc2c(c(NCc3ccccc3)n1)CCCN2 [FF07, 1-(4-(benzylamino)-5,6,7,8-tetrahydropyrido[2,3-d]pyrimidin-2-yl)-2-methyl-1H-indole-4-carboxamide] | < 1 | < 0.03 | < 1 | – |
| Cc1cc2c(C(N)=O)cccc2n1-c1nc(NCc2ccccc2)c2c(n1)OCC2 [FF08, 1-(4-(benzylamino)-5,6-dihydrofuro[2,3-d]pyrimidin-2-yl)-2-methyl-1H-indole-4-carboxamide] | < 3 | < 0.1 | < 3 | – |
| Cc1cc2c(C(N)=O)cccc2n1-c1nc(NCc2cccc(F)c2)c2c(n1)OCCC2 [FF09, 1-(4-((3-fluorobenzyl)amino)-6,7-dihydro-5H-pyrano[2,3-d]pyrimidin-2-yl)-2-methyl-1H-indole-4-carboxamide] | < 1 | < 0.03 | < 1 | – |
| Cc1[nH]c2c(C(N)=O)cccc2c1-c1nc2c(c(NCc3ccccc3)n1)COCC2 [FF10, 3-(4-(benzylamino)-7,8-dihydro-5H-pyrano[4,3-d]pyrimidin-2-yl)-2-methyl-1H-indole-7-carboxamide] | < 3 | < 0.1 | < 3 | – |
| CN1CCCc2nc(-n3ncc4c(C(N)=O)cccc43)nc(NCc3cccc(F)c3)c21 [FF11, 1-(4-((3-fluorobenzyl)amino)-5-methyl-5,6,7,8-tetrahydropyrido[3,2-d]pyrimidin-2-yl)-1H-indazole-4-carboxamide] | – | < 0.1 | – | – |
| Cc1cc2c(C(N)=O)cccc2n1-c1nc2c(c(NCc3cccc(F)c3)n1)N(C)CCC2 [FF12, 1-(4-((3-fluorobenzyl)amino)-5-methyl-5,6,7,8-tetrahydropyrido[3,2-d]pyrimidin-2-yl)-2-methyl-1H-indole-4-carboxamide] | < 1 | < 0.03 | < 1 | – |
| Cc1cc2c(C(N)=O)cccc2n1-c1nc(NCc2ccccc2)c2c(n1)C(C)CN(C)C2 (stereo not drawn) [FF13, 1-(4-(benzylamino)-6,8-dimethyl-5,6,7,8-tetrahydropyrido[4,3-d]pyrimidin-2-yl)-2-methyl-1H-indole-4-carboxamide] | – | < 0.1 | – | – |
| NC(=O)c1cccc2c1cnn2-c1nc2c(c(NCc3cccc(F)c3)n1)CCCC2 [FF14, 1-(4-((3-fluorobenzyl)amino)-5,6,7,8-tetrahydroquinazolin-2-yl)-1H-indazole-4-carboxamide] | – | < 0.1 | < 3 | – |
| COc1nc2c(C(N)=O)cccc2n1-c1nc(NCc2cccc(F)c2)c2c(n1)OCCC2 [FF15, 1-(4-((3-fluorobenzyl)amino)-6,7-dihydro-5H-pyrano[2,3-d]pyrimidin-2-yl)-2-methoxy-1H-benzo[d]imidazole-4-carboxamide] | – | < 0.03 | – | < 3 |
| NC(=O)c1cccc2c1cnn2-c1nc(NCc2cccc(F)c2)c2c(n1)OCCC2 [FF16, 1-(4-((3-fluorobenzyl)amino)-6,7-dihydro-5H-pyrano[2,3-d]pyrimidin-2-yl)-1H-indazole-4-carboxamide] | – | < 0.03 | < 10 | – |
| NC(=O)c1cccc2c1cc(CO)n2-c1nc2c(c(NCc3ccccc3)n1)CCCN2 [FF17, 1-(4-(benzylamino)-5,6,7,8-tetrahydropyrido[2,3-d]pyrimidin-2-yl)-2-(hydroxymethyl)-1H-indole-4-carboxamide] | – | < 0.03 | < 1 | – |
| Cc1cc2c(C(N)=O)cccc2n1-c1nc2c(c(NCc3ccccc3)n1)CCNCC2 [FF20, 1-(4-(benzylamino)-6,7,8,9-tetrahydro-5H-pyrimido[4,5-d]azepin-2-yl)-2-methyl-1H-indole-4-carboxamide] | – | < 0.3 | – | < 3 |
| Cc1oc2c(C(N)=O)cccc2c1-c1nc2c(c(NCc3cccc(F)c3)n1)COCC2 [FF22, 3-(4-((3-fluorobenzyl)amino)-7,8-dihydro-5H-pyrano[4,3-d]pyrimidin-2-yl)-2-methylbenzofuran-7-carboxamide] | – | < 1 | – | – |
| Cc1cc2c(CN)cccc2n1-c1nc(NCc2ccccc2)c2c(n1)OCCC2 [FF31, 2-(4-(aminomethyl)-2-methyl-1H-indol-1-yl)-N-benzyl-6,7-dihydro-5H-pyrano[2,3-d]pyrimidin-4-amine] | – | < 0.3 | – | – |
| NC(=O)c1cccc2c1cnn2-c1nc2c(c(NCc3ccccc3)n1)CNCC2 [FF33, 1-(4-(benzylamino)-5,6,7,8-tetrahydropyrido[4,3-d]pyrimidin-2-yl)-1H-indazole-4-carboxamide] | – | < 1 | – | – |
| Cc1[nH]c2ccccc2c1-c1nc2c(c(NCc3ccccc3)n1)CCCC2 [FF36, N-benzyl-2-(2-methyl-1H-indol-3-yl)-5,6,7,8-tetrahydroquinazolin-4-amine] | < 10 | – | < 10 | – |
